Measured values from patent publication US5204241A, “Glutathione-S-transferase mu as a measure of drug resistance” (Oxi-Gene Inc., priority 1990, dated 1993).

Tested on: glutathione transferase (GST-tSBO, identical to GST-mu)
Assay: Glutathione transferase activity of human liver cytosols (105,000 g supernatants) toward tauromustine and trans-stilbene oxide as substrates
Type: in vitro ADME
Experimental: Human liver biopsies from ? 3 individuals were homogenized in 5 vol. of 0.25 M sucrose, centrifuged at 10,000 g for 15 minutes and then the resulting supernatant was re-centrifuged at 105,000 g for one hour. The 105,000 g supernatants were analyzed for glutathione transferase activity using trans-stilbene oxide (tSBO) and tauromustine as substrates. Metabolism of these substrates to glutathione conjugates was monitored by radiometric procedures involving differential organic solvent extraction, see Gill, S., Ota, J. and Hammock, B. D. Anal. Biochem. 131: 273-282 (1983), and high pressure liquid chromatography (HPLC).

## CN(C)S(=O)(=O)CCNC(=O)N(CCCl)N=O [tauromustine]
Human liver cytosols with GST-tSBO activity 0-10 nmo/min/mg protein (GST mu lacking)
  glutathione transferase activity toward tauromustine: 0-2 nmol/min/mg protein
Human liver cytosols with easily detectable GST-tSBO activity, 25-65 nmol/min/mg protein (GST mu present)
  glutathione transferase activity toward tauromustine (metabolism of tauromustine): 4-19 nmol/min/mg protein
Human liver cytosols, GST mu (+) vs (-)
  extent of metabolism by human liver cytosols having GST mu activity versus cytosols lacking GST mu activity: metabolized to a much greater extent
